Results as given in US11292803B2, “Bioreducible N-oxide-based probes for imaging of hypoxia” (THE BOARD OF TRUSTEES OF THE UNIVERSITY OF ILLINOIS, priority 2018, dated 2022).

Legend:
[1] = tested on: purified bacterial nitroreductase; experiment: Incubation with purified nitroreductase; assay type: biochemical; settings: NADH, 37° C., 2 h
Experimental: FIG. 15. […] For the nitroreductase experiment, HyP-1 (2 μM) was incubated in the presence of nitroreductase (0.5 μg/mL) and NADH (100 μM) in 0.1 M potassium phosphate buffer (pH 7.4) at 37° C. for 2 h. For the bacterial experiment, bacteria were grown overnight, and cells were lysed via sonication. The suspension was centrifuged at 4000 rpm for 10 min, and the supernatant was removed. HyP-1 (2 μM) was incubated with cell lysate solution (1 mL) at 37° C. for 2 h.
(§1) In addition to Fe(II), the response of HyP-1 to a variety of alkali, alkaline earth and transition metals was also determined. […] To further evaluate the stability of HyP-1, a 10 μM solution of the probe was exposed to ambient light and temperature for up to 5 days. Additionally, a 10 μM solution of HyP-1 supplemented with human plasma was incubated at 37° C. for 3 hours. […] As mentioned previously, a major limitation of 2-nitroimidazole-based hypoxia probes is their susceptibility to oxygen-independent reduction via two-electron processes, such as by bacterial nitroreductases. […] Finally, the photostability of both HyP-1 and red-HyP-1 was evaluated via continuous PA image acquisition at 770 nm over the course of 1 hour.

[2] = Response to metal ions and reactive oxygen, nitrogen and sulfur species; settings: 2 h, 37° C., phosphate buffer pH 7.4
Experimental: FIG. 9. Ratiometric fluorescent turn-on response of HyP-1 (2 μM) in the presence of various metal ions in 0.1 M potassium phosphate buffer (pH 7.4, 0.1% v/v CrEL) after 2 h incubation at 37° C. Concentrations used were 2 mM for Na^+, Mg^2+, K^+ and Ca^2+, and 50 μM for all other metal ions.
FIG. 10. Ratiometric fluorescence turn-on response of HyP-1 (2 μM) in the presence of various reactive oxygen, nitrogen and sulfur species (100 μM) in 0.1 M potassium phosphate buffer (pH 7.4, 0.1% v/v CrEL) after 2 h incubation at 37° C.
as §1

Structure (SMILES): CC[N+]([O-])(CC)c1ccc(-c2cc(-c3ccccc3)c3n2[B-](F)(F)[N+]2=C(c4ccc(OC)cc4)C=C(c4ccccc4)C2=N3)cc1 [HyP-1, 4-(5,5-difluoro-7-(4-methoxyphenyl)-1,9-diphenyl-5H-5λ^4,6λ^4-dipyrrolo[1,2-c:2′,1′-f][1,3,5,2]triazaborinin-3-yl)-N,N-diethylaniline oxide]
- conversion to red-HyP-1 [1]: minimal conversion
- turn-on response to alkali, alkaline earth and transition metals [2]: No significant turn-on
